One test has as its system PPC-1 cells. The test is described as follows: MTT cell viability of PPC-1 cells treated with compound with or without CH-11 anti-FAS antibody. To be noted: for IC50: read-out: LD50 (μM) PPCl; for LD50 (μM) (PPCl, CH-11): PPC-1 cells with CH-11 100 ng/mL, MTT 24 hours, LD50 = concentration that reduces cell viability by 50%. Type of test: cell-based. The method, then: FIGS. 2A-C. […] PPC-1 cells (1×10^4) were seeded in 96 well plates. The next day, cells were treated with increasing concentrations of the sensitizing compounds with (open squares) and without (closed squares) CH-11 antibody (100 ng/mL). Cell viability was measured 24 hours later by MTT assay. Cell viability is expressed as a mean percentage of untreated cells+SD (n=3). The Chembridge identification numbers of the compounds are provided.
High throughput screening. […] PPC-1 cells (1×10^4) were seeded overnight into 96 well, flat-bottom plates (Costar, Cambridge, Mass.) in 100 μL of medium containing 2.5% FCS. […] CH-11 antibody (100 ng/mL) was then added, and the cells were incubated for 24 hours before assessing cell viability by a 3-(4,5-Dimethylthiazol-2-yl)-2,5-diphenyltetrazolium Bromide (MTT) dye reduction assay (Sigma).
Cell death assays. […] Absorbance readings were plotted against a standard curve to derive the corresponding cell number, and cell viability was expressed as a percentage relative to untreated cells.

Another test concerns FLIP. The test is described as follows: FLIP protein levels by SDS-PAGE/immunoblotting. Type of test: cell-based, human. To be noted: PPC-1 cells, 30 μM, with or without CH-11, 24 hours, long isoform. As to the method: FIG. 7. Effect of FAS-sensitizing compounds on levels of FLIP protein and DISC activation. (A) PPC-1 cells (2×10^5) were seeded into 35 mm plates and treated the next day with various FAS-sensitizing compounds (30 μM), with (+) or without (−) CH-11 antibody (100 ng/mL). As a positive control, cells were treated with CDDO (5 μM). Cell lysates were prepared 24 hours later, normalized for total protein content, and analyzed by SDS-PAGE/immunoblotting using antibodies specific for FLIP or a-tubulin. (B) PPC-1, OVCAR-3, T47D, MDA-MB-468 and DU 145 cells (2×10^5) were seeded into 35 mm plates and treated the next day with 5809354 (40 μM). Cell lysates were prepared 24 hours after treatment, normalized for total protein and analyzed by SDS-PAGE/immunoblotting using antibodies specific for FLIP or β-actin. (C) PPC-1, OVCAR-3, T47D, and DU 145 cells (2×10^5) were seeded into 35 mm plates and treated the next day with 5809354 (40 μM) (black bars) or buffer control (white bars). mRNA was extracted 24 hours after treatment. Levels of the long isoform of FLIP and GAPDH were detected by quantitative RT-PCR. Levels of FLIP were normalized for GAPDH expression and expressed as a mean fold change+SD over buffer treated cells. (D) PPC-1 cells (2×10^5) were seeded into 35 mm plates and treated the next day with various FAS-sensitizing compounds (30 μM) with (+) or without (−) CH-11 (100 ng/mL). Cell lysates were prepared 24 hours after treatment, normalized for total protein, and analyzed by SDS-PAGE/immunoblotting using antibodies specific for caspase-8 and β-actin.
FIG. 13. Small molecule down-regulation of FLIP sensitizes prostate cancer cells to anoikis. (A) PPC-1 cells were seeded overnight in adherent conditions and then treated with increasing concentrations of 5809354 for 16 hours. After incubation, cells were harvested. Total cellular RNA was extracted and mRNA levels of the long isoform of FLIP (FLIPL), the short isoform of FLIP (FLIPS), or rRNA levels of 18S were detected by real-time RT-PCR. Data were normalized using the ΔΔCT method and expressed as the mean±SEM percent of […] expression relative to untreated controls. (B) PPC-1 cells were cultured and treated as in panel A. Total cellular protein was isolated and analyzed by SDS-PAGE immunoblotting using anti-FLIP and anti-Actin antibodies. (C) PPC-1 cells were seeded overnight in adherent conditions and then exposed to increasing concentrations of 5809354 in the presence or absence of Fas-activating antibody (CH-11, 100 ng/mL). Thirty hours after incubation, cell viability was determined using the MTS assay. Data represents the mean±SEM of percent of viable cells. (D) PPC-1 cells were seeded overnight in adherent or suspension conditions and then treated with increasing concentrations of 5809354 for 30 hours. After incubation, apoptosis was measured by flow cytometry to detect cell surface annexin V expression and PI. Data represents the mean±SEM of percent of viable cells. (E) Cells were harvested, fixed, stained with DAPI, and nuclear morphology analyzed by fluorescence microscopy. Arrowheads refer to fragmented nuclei indicative of apoptosis. […] Thirty hours after incubation, cells were harvested and equal volumes plated in a colony formation assay. One week later, cells were stained with methylene blue and the number of colonies counted. Data represents the mean ±SEM percent of colonies relative to untreated controls.
Immunoblot analysis. Protein extracts were obtained by washing cells with phosphate-buffered saline (PBS) [pH 7.4] and suspending the cells in lysis buffer [10 mM Tris (pH 7.4), 150 mM NaCl, 0.1% Triton X-100, 0.5% sodium deoxycholate, and 5 mM EDTA] containing protease inhibitors (Complete tablets; Roche, Indianapolis, Ind.). Immunoblot assays were performed as described in Carter et al. (2005). […]
(Immunoblotting shows a protein as a band on a membrane.)

The mark [1] stands for this setting: Homo sapiens, PPC-1, 24 h, PPC-1 cells, compound alone without CH-11, MTT 24 hours.

Molecules are shown by their SMILES. Where a name gives a salt, the structure may show the parent alone. Read-outs that look alike come from different tables or passages of the source. Some results are limits rather than exact numbers.

The text below walks through data of patent publication US8008354B2, “Death receptor sensitizing compounds and methods of use therefor” (Burnham Institute for Medical Research, priority 2006, dated 2011).

`CC(=O)CC(=O)Nc1cc(C(F)(F)F)ccc1Cl` [N-[2-chloro-5-(trifluoromethyl)phenyl]-3-oxobutanamide]: in the test on PPC-1 cells (setting [1]), the IC50 turned out to be 75 ± 1 µM. Also, the “LD50 (μM) (PPCl, CH-11)” value in the test on PPC-1 cells turned out to be 65 ± 5 µM.

Turning to `Br.Cc1ccc(Cn2c(=N)n(CC(=O)c3cc(C(C)(C)C)c(O)c(C(C)(C)C)c3)c3ccccc32)cc1` [compound 5651311, 1-(3,5-di-tert-butyl-4-hydroxyphenyl)-2-(2-imino-3-(4-methylbenzyl)-2,3-dihydro-1H-benzo[d]imidazol-1-yl)ethanone hydrobromide], the IC50 in the test on PPC-1 cells (setting [1]) turned out to be 19 µM. Moreover, the “LD50 (μM) (PPCl, CH-11)” value in the test with PPC-1 cells stood at 9 µM.

Consider `O=C(CCc1ccccc1)Nc1ccc(Cl)c(C(F)(F)F)c1` [N-[4-chloro-3-(trifluoromethyl)-phenyl]-3-phenyl-proionamide], for which, in the test with PPC-1 cells (setting [1]), the IC50 was determined as 85 ± 3 µM. The “LD50 (μM) (PPCl, CH-11)” value with PPC-1 cells was found to be 11 ± 1 µM.

As for `C/C(CC(=O)Nc1ccc(Cl)c(C(F)(F)F)c1)=N\NC(=O)c1cnccn1` [N-(4-Chloro-3-trifluoromethyl-phenyl)-3-[(pyrazine-2-carbonyl)-hydrazono]-butyramide], the IC50 with PPC-1 cells (setting [1]) was 67 ± 3 µM. The “LD50 (μM) (PPCl, CH-11)” value in the test with PPC-1 cells was determined as 11 ± 3 µM.

As for `O=C(Cc1ccc(Cl)cc1)N1CCN(C/C=C/c2ccccc2)CC1` [compound 5703229, 1-[(4-chlorophenyl)acetyl]-4-[(2e)3-phenylprop-2-enyl]piperazine], the IC50 in the test on PPC-1 cells (Homo sapiens, PPC-1, 24 h) was 50 µM. For the same molecule, in the test with PPC-1 cells, the “LD50 (μM) (PPCl, CH-11)” value was 34+4 μM.

Regarding `Br.CC(C)(C)c1cc(C(=O)Cn2c(=N)n(Cc3ccccc3)c3ccccc32)cc(C(C)(C)C)c1O` [compound 5657593, 2-(3-benzyl-2-imino-2,3-dihydro-1H-benzo[d]imidazol-1-yl)-1-(3,5-di-tert-butyl-4-hydroxyphenyl)ethanone hydrobromide], the IC50 in the test with PPC-1 cells (setting [1]) was 9.1 µM. Besides, in the test on PPC-1 cells, the “LD50 (μM) (PPCl, CH-11)” value amounted to 3.4 µM.

`O=C(CCc1ccccc1)Nc1ccc(Cl)cc1C(F)(F)F` [N-[4-chloro-2-(trifluoromethyl)phenyl]-3-phenylpropanamide]: the IC50 in the test on PPC-1 cells (setting [1]) was over 100 µM. For the same molecule, the “LD50 (μM) (PPCl, CH-11)” value with PPC-1 cells is over 100 µM.

For `O=C(CCc1ccccc1)Nc1cc(C(F)(F)F)ccc1Cl` [N-[2-chloro-5-(trifluoromethyl)phenyl]-3-phenylpropanamide], in the test on PPC-1 cells (setting [1]), the IC50 was over 100 µM. Further, the “LD50 (μM) (PPCl, CH-11)” value with PPC-1 cells is over 100 µM.

Regarding `CC(C)(C)c1cc(C(=O)Cn2c(=N)n(CCN3CCCCC3)c3ccccc32)cc(C(C)(C)C)c1O.Cl` [compound 5529457, 1-(3,5-di-tert-butyl-4-hydroxyphenyl)-2-(2-imino-3-(2-(piperidin-1-yl)ethyl)-2,3-dihydro-1H-benzo[d]imidazol-1-yl)ethanone hydrochloride], the IC50 in the test on PPC-1 cells (setting [1]) was 7.5 µM. For the same molecule, the “LD50 (μM) (PPCl, CH-11)” value with PPC-1 cells amounted to 3.7 µM.

Take `O=C(Nc1ccc(Cl)c(C(F)(F)F)c1)c1cccs1` [N-[4-chloro-3-(trifluoromethyl)phenyl]-2-thiophenecarboxamide]: in the test with PPC-1 cells (setting [1]), the IC50 turned out to be 96 ± 1 µM. Moreover, the “LD50 (μM) (PPCl, CH-11)” value in the test on PPC-1 cells amounted to 35 ± 11 µM.

The EC50 is the concentration needed to bring the measured effect to its halfway point. On to `Cn1c(=N)n(CC(=O)c2cc(C(C)(C)C)c(O)c(C(C)(C)C)c2)c2ccccc21` [compound 5541203, 1-(3,5-di-tert-butyl-4-hydroxyphenyl)-2-(2-imino-3-methyl-2,3-dihydro-1H-benzo[d]imidazol-1-yl)ethanone hydrobromide], for which the IC50 was found to be 45 µM with PPC-1 cells (setting [1]) and 45.4 µM in the test on PPC-1 cells (PPC-1 cells, compound alone without CH-11, MTT 24 hours; hydrobromide)). Also, in the test on PPC-1 cells (Homo sapiens, PPC-1, with anti-FAS antibody, read-out: EC50 as a FAS-sensitizer in PPC1 cells), the EC50 was determined as 25.7 µM. In the test with PPC-1 cells, the “LD50 (μM) (PPCl, CH-11)” value is 25.7 µM. The “levels of FLIP protein” value in the test with FLIP is recorded as “had little effect”.
